Laboratory results published in PubChem BioAssay AID504542 (Sanford-Burnham Center for Chemical Genomics, 2011).
The source made the active and inactive calls. How the calls were made is not given here.

system: S. cerevisiae TIM10 counterscreen strain, luminescence; assay: TIM10 counterscreen strain luminescent signal reducers – S. cerevisiae, uHTS hits, counter-screen for tim10-1 inhibitor project, dose response (AID 504542)

Q: For `Cn1c(/C=C/c2ccc([N+](=O)[O-])o2)nc2ccccc2c1=O`, which IC50 is on record?
A: 4.94 µM

Q: Which IC50 does the source give for `CNC(=O)c1nnsc1S(=O)(=O)c1ccc(Cl)cc1` here?
A: 12.9 µM

Q: With `N/C(Cc1ccc(Cl)cc1)=N\OC(=O)c1ccc2ccccc2c1` as the compound, how does the IC50 read?
A: 0.26 µM

Q: `COc1ccc2cc3cc(C(=O)NCCN4CCc5ccccc5C4)oc3nc2c1` was tested. Which IC50 did it give?
A: < 0.2 µM

Q: How did the IC50 turn out when `CC(C)(C)c1ccc(CN2N=Nc3ccccc3S2(=O)=O)cc1` was run?
A: 2.99 µM

Q: Which IC50 does the source give for `Cc1ccc(NC(=S)Nc2ccc(Cl)c(Cl)c2)c(OC(F)F)c1` here?
A: 9.07 µM

Q: `Cc1cc([N+](=O)[O-])ccc1-c1ccc(C2Nc3ccccc3C(=O)N2O)o1` (stereo not given) was tested. Which IC50 did it give?
A: 9.76 µM

Q: For `CC(=O)c1ccc(NC(=S)NC(C)c2ccc(Cl)cc2Cl)cc1` (stereo not given), which IC50 is on record?
A: 9.11 µM

Q: `Cc1ccc(NC(=S)/N=C(\N)Nc2nc(C)c3cc(C)ccc3n2)c(C)c1` was tested. Which IC50 did it give?
A: 12.1 µM

Q: With `CC1(CC(=O)N/N=C/c2ccc(OCc3ccc(Cl)cc3Cl)cc2)OCCCO1` as the compound, how does the IC50 read?
A: 2.94 µM

Q: Which IC50 does the source give for `N/C(=N\OC(=O)CCC1CCCC1)c1cccc([N+](=O)[O-])c1` here?
A: 8.32 µM

Q: For `CCOC(=O)/C=C/C(=O)Nc1cccc([N+](=O)[O-])c1`, which IC50 is on record?
A: 1.9 µM

Q: For `COc1ccc(C(=O)O/N=C(\N)c2ccc(Br)cc2)cc1`, which IC50 is on record?
A: 7.29 µM

Q: For `COC(=O)c1c(N2C(=O)CC(Sc3ccccc3C(=O)O)C2=O)sc2c1CCCC2` (stereo not given), which IC50 is on record?
A: 1.49 µM

Q: How did the IC50 turn out when `c1ccc(Nc2cccc(Nc3ccccc3)c2)cc1` was run?
A: 5.02 µM

Q: For `O=C(/C=C\c1ccc(-c2ccccc2)o1)c1ccccc1`, which IC50 is on record?
A: 2.39 µM

Q: `O=C(/C=C/c1ccc2c(c1)OCCCO2)c1ccccc1O` was tested. Which IC50 did it give?
A: 4.68 µM

Q: With `CCCCc1ccc(NC(=S)Nc2ccc(Nc3ccc(OC)cc3)cc2)cc1` as the compound, how does the IC50 read?
A: 12.4 µM

Q: With `CC(C)NC(=S)N/N=C1\CCCCc2ccccc21` as the compound, how does the IC50 read?
A: 3.66 µM

Q: Which IC50 does the source give for `CCCn1c(CC)nc([N+](=O)[O-])c1S(=O)(=O)c1ccccc1` here?
A: 2.72 µM

Q: With `COc1ccc(Cl)cc1NC(=O)CN(C)C(=O)C12CC3CC(CC(Cl)(C3)C1)C2` as the compound, how does the IC50 read?
A: 12 µM

Q: `C[C@@H]1CC=C[C@H]2[C@H]1C(=O)N(Cc1ccccc1)[C@H]2c1ccc(-c2ccoc2)cc1F` was tested. Which IC50 did it give?
A: 7.07 µM

Q: `COc1cc(/C=C/c2ccc3cccc(O)c3n2)c(Br)cc1O` was tested. Which IC50 did it give?
A: 9.2 µM

Q: Which IC50 does the source give for `N/C(Cc1ccc(Cl)cc1Cl)=N\OC(=O)Cc1ccc(Cl)cc1` here?
A: 0.74 µM

Q: `COc1ccc(Cl)cc1NC(=S)NCCc1ccc(F)cc1` was tested. Which IC50 did it give?
A: 11.3 µM

Q: With `CC(C)C(=O)N1CCN(c2ccccc2NC(=O)c2ccc([N+](=O)[O-])o2)CC1` as the compound, how does the IC50 read?
A: 1.82 µM

Q: For `Cc1ccccc1/C=C/C(=O)c1ccc([N+](=O)[O-])o1`, which IC50 is on record?
A: 0.66 µM

Q: With `N=C(N)c1ccc(/C=C/c2ccc(C(=N)N)cc2O)cc1` as the compound, how does the IC50 read?
A: 4.36 µM

Q: For `COc1cc(N=c2ssnc2Cl)c(OC)cc1Cl`, which IC50 is on record?
A: 3.15 µM

Q: With `CCOC(=O)c1ccc(NC(=O)CC2OCCN(CC)C2=O)cc1` (stereo not given) as the compound, how does the IC50 read?
A: 1.28 µM

Q: How did the IC50 turn out when `O=S(=O)(CCN(CCS(=O)(=O)C(F)(F)F)CC1CCCO1)C(F)(F)F` (stereo not given) was run?
A: 5.4 µM

Q: For `Cc1cc(C)cc(N2C(=O)CC(Sc3nnnn3-c3ccccc3)C2=O)c1` (stereo not given), which IC50 is on record?
A: 0.69 µM

Q: `Fc1c(F)c(C(F)(F)F)c(F)c(F)c1N/N=C\c1cccs1` was tested. Which IC50 did it give?
A: 4 µM

Q: With `Fc1ccccc1CNC(=S)Nc1cccc(C(F)(F)F)c1` as the compound, how does the IC50 read?
A: 8.28 µM

Q: Which IC50 does the source give for `COC(=O)C(C(C)=O)C1=C/C(=N\S(=O)(=O)c2ccc(C)cc2)c2ccccc2C1=O` (stereo not given) here?
A: 3.81 µM

Q: Which IC50 does the source give for `O=C(NNC(=S)Nc1cccc(C(F)(F)F)c1)c1ccc(Cl)cc1Cl` here?
A: 8.13 µM

Q: For `COc1ccc(-c2cc(C3CC3)nc3sc(C#N)c(N)c23)cc1`, which IC50 is on record?
A: 4.46 µM

Q: Which IC50 does the source give for `COc1ccc(C(=O)O/N=C(\N)c2ccc(Cl)cc2)cc1` here?
A: 4.07 µM

Q: `COc1ccc(/C=C/C(=O)c2ccccc2)cc1Cn1nnc2ccccc21` was tested. Which IC50 did it give?
A: 3.86 µM

Q: With `Cc1nonc1C1CCCN1C(=O)c1cc(COc2cccc(C(F)(F)F)c2)on1` (stereo not given) as the compound, how does the IC50 read?
A: 9.73 µM

Q: Which IC50 does the source give for `CCOC(=O)c1ccc(N2C(=O)C=CC2=O)cc1` here?
A: 0.41 µM

Q: With `CCOc1ccccc1NC(=O)/C=C/C(N)=O` as the compound, how does the IC50 read?
A: 3.32 µM

Q: With `Cc1ccc(S(=O)(=O)c2nc(S(C)(=O)=O)sc2N2CCCCC2C)cc1` (stereo not given) as the compound, how does the IC50 read?
A: 2.35 µM

Q: Which IC50 does the source give for `O=C1CC(Sc2nnnn2-c2ccccc2)C(=O)N1c1cccc(Cl)c1` (stereo not given) here?
A: 1.72 µM

Q: How did the IC50 turn out when `CCCCCCC(=O)N(O)C1CC(=O)N(c2ccc(C)cc2)C1=O` (stereo not given) was run?
A: 4.38 µM

Q: For `CCN(CC)C1CC(=O)N(c2cccc(Cl)c2)C1=O` (stereo not given), which IC50 is on record?
A: 1.74 µM

Q: How did the IC50 turn out when `N/C(=N\OC(=O)CCCc1ccccc1)c1ccccc1Cl` was run?
A: 7.22 µM

Q: Which IC50 does the source give for `O=C(NNC(=S)Nc1ccc(Cl)cc1)c1ccccc1OC(F)F` here?
A: 4.44 µM

Q: `O=C(Nc1cccc(N2C(=O)C=CC2=O)c1)c1cccs1` was tested. Which IC50 did it give?
A: 2.61 µM

Q: With `Cc1cc(/C=C\c2ccc3cc(N(C)C)ccc3[n+]2C)c(C)n1-c1ccccc1` as the compound, how does the IC50 read?
A: 3.92 µM

Q: For `NC(=NCCCCCCN=C(N)/N=C(\N)Nc1ccc(Cl)cc1)/N=C(\N)Nc1ccc(Cl)cc1`, which IC50 is on record?
A: > 100 µM (inactive)

Q: Which IC50 does the source give for `COc1ccccc1N1C(=O)CC(Sc2n[nH]c(-c3cccc(C)c3)n2)C1=O` (stereo not given) here?
A: 3.62 µM

Q: For `CN=C(Nc1cc(Cl)ccc1Cl)SC1CC(=O)N(c2ccc(C(=O)OC)cc2)C1=O` (stereo not given), which IC50 is on record?
A: 6.33 µM

Q: For `Cn1c(Cl)cnc1C1CC(=O)c2cc(Cl)ccc2O1` (stereo not given), which IC50 is on record?
A: 1.98 µM

Q: How did the IC50 turn out when `O=C(OCn1ncc(Br)c(Br)c1=O)c1ccc(F)cc1` was run?
A: 1.15 µM

Q: `CC1=C/C(=N\OS(=O)(=O)c2ccccc2)C(C)=CC1=O` was tested. Which IC50 did it give?
A: < 0.2 µM

Q: With `O=c1c2ccccc2nc(/C=C/c2ccc([N+](=O)[O-])o2)n1CCCO` as the compound, how does the IC50 read?
A: 4.49 µM

Q: How did the IC50 turn out when `COc1ccc(-c2[nH]ncc2N=Nc2ccccc2)cc1` was run?
A: 5.88 µM

Q: How did the IC50 turn out when `CCCCNC(=S)Nc1ccc(C(F)(F)F)cc1` was run?
A: 9.88 µM

Q: For `COc1ccc(Br)cc1[C@H]1[C@H]2C=CC[C@@H](C)[C@@H]2C(=O)N1Cc1ccccc1`, which IC50 is on record?
A: 6.86 µM
